Source: ChEMBL document CHEMBL3779791, “Captopril analogues as metallo-β-lactamase inhibitors” (Bioorg Med Chem Lett, 2016)
Calls of active or inactive are those of the source. The calls are words filed in the database; no cut-off is given here.

System: Pseudomonas aeruginosa
Assay: Competitive inhibition of Pseudomonas aeruginosa 101/1477 metallo-beta-lactamase IMP-1 expressed in Escherichia coli BL21 (DE3) using benzylpenicillin as substrate by spectrophotometric analysis

**Q.** Which Kic does the source give for `O=C(O)C1CCCCN1C(=O)CCCS` (racemic) here?
**A.** Its Kic is 7.1 µM.

**Q.** With `O=C(O)CCCC(=O)N1CCC[C@@H]1C(=O)O` as the molecule, how does the Kic read?
**A.** Its Kic is “inactive”.

**Q.** How did the Kic turn out when `O=C(O)CCC(=O)N1CCC[C@@H]1C(=O)O` was run?
**A.** The Kic was “inactive”.

**Q.** With `O=C(O)C1CCCCN1C(=O)CS` (racemic) as the molecule, how does the Kic read?
**A.** The Kic was 3.4 µM.

**Q.** `O=C(O)CC(=O)N1CCC[C@@H]1C(=O)O` was tested. Which Kic did it give?
**A.** The Kic was “inactive”.

**Q.** For `O=C(O)[C@H]1CCCN1C(=O)CCS`, which Kic is on record?
**A.** Its Kic is 2.9 µM.

**Q.** `O=C(O)COC[C@H]1CCCN1C(=O)CCCS` was tested. Which Kic did it give?
**A.** The Kic was 363 µM.

**Q.** For `O=C(O)[C@@H]1CCCN1C(=O)CS`, which Kic is on record?
**A.** The Kic was 2.2 µM.

**Q.** `O=C(O)COC[C@H]1CCCN1C(=O)CS` was tested. Which Kic did it give?
**A.** Its Kic is 290 µM.

**Q.** `O=C(O)[C@H]1CCCN1C(=O)CCCS` was tested. Which Kic did it give?
**A.** Its Kic is 5.8 µM.

**Q.** How did the Kic turn out when `O=C(O)CC(=O)N1CCC[C@H]1C(=O)O` was run?
**A.** Its Kic is “inactive”.

**Q.** For `O=C(O)[C@@H]1CCCN1C(=O)CCCS`, which Kic is on record?
**A.** The Kic was 7.2 µM.

**Q.** For `O=C(O)COC[C@H]1CCCN1C(=O)CCS`, which Kic is on record?
**A.** Its Kic is 390 µM.

**Q.** For `O=C(O)CCCC(=O)N1CCC[C@H]1C(=O)O`, which Kic is on record?
**A.** Its Kic is “inactive”.

**Q.** Which Kic does the source give for `CC(=O)SCC(=O)N1CCCCC1C(=O)O` (racemic) here?
**A.** The Kic was 24 µM.

**Q.** With `O=C(O)[C@H]1CCCN1C(=O)CS` as the molecule, how does the Kic read?
**A.** Its Kic is 2.3 µM.

**Q.** Which Kic does the source give for `O=C(O)CCC(=O)N1CCC[C@H]1C(=O)O` here?
**A.** The Kic was “inactive”.

**Q.** Which Kic does the source give for `O=C(O)[C@@H]1CCCN1C(=O)CCS` here?
**A.** Its Kic is 9.9 µM.

**Q.** Which Kic does the source give for `O=C(O)C1CCCCN1C(=O)CCS` (racemic) here?
**A.** The Kic was 10 µM.
